In patent publication US8614327B2 (Vertex Pharmaceuticals Incorporated, priority 2004, dated 2013):

Target: T1, ΔF508-CFTR (Homo sapiens, UniProt P13569, DEL508-508)
T1 construct: expressed in transfected cells
Experiment: Membrane potential optical (FRET/VIPR) assay, identification of potentiator compounds
Format: cell-based
Details: Table 3, assay not given; for % Activity: relative efficacy
Excerpt: I) Membrane Potential Optical Methods for Assaying ΔF508-CFTR Modulation Properties of Compounds The optical membrane potential assay utilized voltage-sensitive FRET sensors described by Gonzalez and Tsien (See, Gonzalez, J. E. and R. Y. Tsien (1995) “Voltage sensing by fluorescence resonance energy transfer in single cells” Biophys J 69(4): 1272-80, and Gonzalez, J. E. and R. Y. Tsien (1997) “Improved indicators of cell membrane potential that use fluorescence resonance energy transfer” Chem Biol 4(4): 269-77) in combination with instrumentation for measuring fluorescence changes such as the Voltage/Ion Probe Reader (VIPR) (See, […]. Oades, et al. (1999) “Cell-based assays and instrumentation for screening ion-channel targets” Drug Discov Today 4(9): 431-439). These voltage sensitive assays are based on the change in fluorescence resonant energy transfer (FRET) between the membrane-soluble, voltage-sensitive dye, DiSBAC2(3), and a fluorescent phospholipid, CC2-DMPE, which is attached to the outer leaflet of the plasma membrane and acts as a FRET donor. Changes in membrane potential (Vm) cause the negatively charged DiSBAC2(3) to redistribute across the plasma membrane and the amount of energy transfer from CC2-DMPE changes accordingly. The changes in fluorescence emission were monitored using VIPR which is an integrated liquid handler and fluorescent detector designed to conduct cell-based screens in 96- or 384-well microtiter plates. To identify potentiators of ΔF508-CFTR, a double-addition HTS assay format was developed. During the first addition, a Cl^--free medium with or without test compound was added to each well. […] (in mM) NaCl 160, KCl 4.5, CaCl2 2, MgCl2 1, HEPES 10, pH 7.4 with NaOH. • Chloride-free bath solution: Chloride salts in Bath Solution #1 are substituted with gluconate salts. • CC2-DMPE: Prepared as a 10 mM stock solution in DMSO and stored at -20° C. • DiSBAC2(3): Prepared as a 10 mM stock in DMSO and stored at -20° C. NIH3T3 mouse fibroblasts stably expressing ΔF508-CFTR are used for optical measurements of membrane potential. […] For all optical assays, the cells were seeded at 30,000/well in 384-well matrigel-coated plates and cultured for 2 hrs at 37° C. before culturing at 27° C. for 24 hrs. for the potentiator assay.

T1 sequence (P13569 with tags, fused parts or gaps DEL508-508): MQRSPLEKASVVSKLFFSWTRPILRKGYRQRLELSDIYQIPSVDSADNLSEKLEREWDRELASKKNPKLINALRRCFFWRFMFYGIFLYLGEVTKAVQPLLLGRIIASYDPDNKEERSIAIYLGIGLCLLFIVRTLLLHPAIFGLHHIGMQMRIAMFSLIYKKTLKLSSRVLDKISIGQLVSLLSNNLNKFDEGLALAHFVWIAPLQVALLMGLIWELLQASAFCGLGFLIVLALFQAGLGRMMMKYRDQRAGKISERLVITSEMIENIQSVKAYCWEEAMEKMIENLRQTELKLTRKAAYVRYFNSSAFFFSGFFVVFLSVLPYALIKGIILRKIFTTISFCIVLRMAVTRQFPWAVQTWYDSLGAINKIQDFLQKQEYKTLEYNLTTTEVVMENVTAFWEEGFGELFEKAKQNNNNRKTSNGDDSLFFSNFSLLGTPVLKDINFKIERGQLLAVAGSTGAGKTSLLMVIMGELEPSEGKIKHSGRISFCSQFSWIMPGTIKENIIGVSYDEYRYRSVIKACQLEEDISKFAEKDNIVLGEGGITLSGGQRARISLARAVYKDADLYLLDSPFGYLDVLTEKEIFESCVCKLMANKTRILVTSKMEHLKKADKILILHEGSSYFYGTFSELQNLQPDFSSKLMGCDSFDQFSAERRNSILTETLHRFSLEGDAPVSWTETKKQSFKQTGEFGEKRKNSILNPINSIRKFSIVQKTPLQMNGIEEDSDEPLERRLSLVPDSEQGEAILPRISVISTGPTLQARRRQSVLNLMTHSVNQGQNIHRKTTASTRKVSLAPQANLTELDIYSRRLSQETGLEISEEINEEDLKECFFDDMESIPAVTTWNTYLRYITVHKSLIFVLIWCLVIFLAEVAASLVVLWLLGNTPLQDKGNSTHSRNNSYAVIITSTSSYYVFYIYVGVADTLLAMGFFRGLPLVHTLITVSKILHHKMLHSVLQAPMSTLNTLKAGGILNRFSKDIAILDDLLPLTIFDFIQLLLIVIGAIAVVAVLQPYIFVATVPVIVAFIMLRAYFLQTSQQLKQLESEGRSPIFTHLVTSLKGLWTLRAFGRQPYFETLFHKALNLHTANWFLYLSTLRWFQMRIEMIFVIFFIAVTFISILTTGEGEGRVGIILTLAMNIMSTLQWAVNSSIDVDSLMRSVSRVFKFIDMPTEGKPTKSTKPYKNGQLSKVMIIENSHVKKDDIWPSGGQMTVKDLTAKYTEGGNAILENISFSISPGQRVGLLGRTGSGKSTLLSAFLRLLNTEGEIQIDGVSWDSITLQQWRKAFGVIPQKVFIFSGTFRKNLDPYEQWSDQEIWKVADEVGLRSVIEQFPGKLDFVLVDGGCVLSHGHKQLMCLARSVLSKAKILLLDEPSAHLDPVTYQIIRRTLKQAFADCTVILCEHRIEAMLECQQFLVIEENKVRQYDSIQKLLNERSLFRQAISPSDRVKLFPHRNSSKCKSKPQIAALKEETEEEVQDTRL

| Compound | EC50 [µM] | % Activity |
| --- | --- | --- |
| CC(C)(C)c1cc(C(C)(C)C)c(NC(=O)c2c[nH]c3ccc(F)cc3c2=O)cc1O [Compound 103, 6-fluoro-N-(5-hydroxy-2,4-ditert-butyl-phenyl)-4-oxo-1H-quinoline-3-carboxamide] | < 10 | +++ (>100%) |
| O=C(Nc1cccc2c1Cc1ccccc1-2)c1c[nH]c2ccccc2c1=O [Compound 18, N-(9H-fluoren-1-yl)-4-oxo-1H-quinoline-3-carboxamide] | < 10 | ++ (between 25% to 100%) |
| CCc1ccc(NC(=O)c2c[nH]c3ccccc3c2=O)cc1N [Compound 8, N-(3-amino-4-ethyl-phenyl)-4-oxo-1H-quinoline-3-carboxamide] | < 10 | ++ (between 25% to 100%) |
| O=C(Nc1cccc(C(F)(F)F)c1)c1c[nH]c2ccccc2c1=O [Compound 164, 4-oxo-N-[3-(trifluoromethyl)phenyl]-1H-quinoline-3-carboxamide] | < 10 | ++ (between 25% to 100%) |
| Cc1ccc(-c2ccccc2NC(=O)c2c[nH]c3ccccc3c2=O)cc1 [Compound 181, 4-oxo-N-[2-(p-tolyl)phenyl]-1H-quinoline-3-carboxamide] | < 10 | ++ (between 25% to 100%) |
| O=C(Nc1ccc2c(c1)OC(F)(F)O2)c1c[nH]c2ccccc2c1=O [Compound 66, N-(2,2-difluorobenzo[1,3]dioxol-5-yl)-4-oxo-1H-quinoline-3-carboxamide] | 10 to 25 | ++ (between 25% to 100%) |
| O=C(Nc1cc2c(cc1O)CCCC2)c1c[nH]c2ccccc2c1=O [Compound 56, 1,4-dihydro-N-(1,2,3,4-tetrahydro-6-hydroxynaphthalen-7-yl)-4-oxoquinoline-3-carboxamide] | < 10 | ++ (between 25% to 100%) |
| Cc1ccc(-c2ccccc2NC(=O)c2c[nH]c3ccccc3c2=O)o1 [Compound 311, N-[2-(5-methyl-2-furyl)phenyl]-4-oxo-1H-quinoline-3-carboxamide] | < 10 | ++ (between 25% to 100%) |
| CCC(C)c1ccccc1NC(=O)c1c[nH]c2ccccc2c1=O (centres unmarked) [Compound 142, 4-oxo-N-(2-sec-butylphenyl)-1H-quinoline-3-carboxamide] | < 10 | ++ (between 25% to 100%) |
| Cn1cnnc1-c1ccc(NC(=O)c2c[nH]c3ccccc3c2=O)cc1 [Compound 301, N-[4-(4-methyl-4H-1,2,4-triazol-3-yl)phenyl]-4-oxo-1H-quinoline-3-carboxamide] | 25 to 60 | + (<25%) |
| CC(C)(C)c1cc(NC(=O)c2c[nH]c3ccccc3c2=O)c(O)c(C(C)(C)C)c1 [Compound 136, N-(2-hydroxy-3,5-ditert-butyl-phenyl)-4-oxo-1H-quinoline-3-carboxamide] | < 10 | ++ (between 25% to 100%) |
| O=C(Nc1ccc2c(c1)NCC2)c1c[nH]c2ccccc2c1=O [Compound 258, N-Indolin-6-yl-4-oxo-1H-quinoline-3-carboxamide] | < 10 | ++ (between 25% to 100%) |
| Cc1ccc(NC(=O)c2c[nH]c3ccccc3c2=O)cc1 [Compound 31, 4-oxo-N-(p-tolyl)-1H-quinoline-3-carboxamide] | < 10 | ++ (between 25% to 100%) |
| O=C(Nc1ccc2nc(-c3ccccc3)[nH]c2c1)c1c[nH]c2ccccc2c1=O [Compound 73, 4-oxo-N-(2-phenyl-3H-benzoimidazol-5-yl)-1H-quinoline-3-carboxamide] | 25 to 60 | + (<25%) |
| NC(=O)c1cccc(NC(=O)c2c[nH]c3ccccc3c2=O)c1 [Compound 179, N-(3-carbamoylphenyl)-4-oxo-1H-quinoline-3-carboxamide] | 25 to 60 | + (<25%) |
| O=C(Nc1cccc(S(=O)(=O)N2CCCC2)c1)c1c[nH]c2ccccc2c1=O [Compound 24, 4-oxo-N-(3-pyrrolidin-1-ylsulfonylphenyl)-1H-quinoline-3-carboxamide] | 25 to 60 | + (<25%) |
| CC(C)(C)c1ccc(N)cc1NC(=O)c1c[nH]c2ccccc2c1=O [Compound 260, N-(5-Amino-2-tert-butyl-phenyl)-4-oxo-1H-quinoline-3-carboxamide] | < 10 | ++ (between 25% to 100%) |
| O=C(Nc1ccc2c3c([nH]c2c1)CCCC3)c1c[nH]c2ccccc2c1=O [Compound 244, 4-oxo-N-(6,7,8,9-tetrahydro-5H-carbazol-2-yl)-1H-quinoline-3-carboxamide] | < 10 | ++ (between 25% to 100%) |
| O=C(Nc1ccccc1-c1cc(F)cc(F)c1)c1c[nH]c2ccccc2c1=O [Compound 138, N-[2-(3,5-difluorophenyl)phenyl]-4-oxo-1H-quinoline-3-carboxamide] | – | ++ (between 25% to 100%) |
| CCN(CC)c1ccc(NC(=O)c2c[nH]c3ccccc3c2=O)c(C)c1 [Compound 82, N-(4-diethylamino-2-methyl-phenyl)-4-oxo-1H-quinoline-3-carboxamide] | < 10 | ++ (between 25% to 100%) |

Second part, the compound after the results:

| EC50 [µM] | % Activity | Compound |
| --- | --- | --- |
| – | ++ (between 25% to 100%) | CCOc1ccccc1-c1ccccc1NC(=O)c1c[nH]c2ccccc2c1=O [Compound 344, N-[2-(2-ethoxyphenyl)phenyl]-4-oxo-1H-quinoline-3-carboxamide] |
| < 10 | ++ (between 25% to 100%) | COC(=O)NCC(C)(C)c1ccc(NC(=O)c2c[nH]c3ccccc3c2=O)cc1 [Compound 323, [2-Methyl-2-[4-[(4-oxo-1H-quinolin-3-yl)carbonylamino]phenyl]-propyl]aminoformic acid methyl ester] |
| < 10 | ++ (between 25% to 100%) | Cc1cccc2[nH]cc(C(=O)Nc3cc(O)c(C4(C)CCCCC4)cc3F)c(=O)c12 [Compound 498, N-[2-fluoro-5-hydroxy-4-(1-methylcyclohexyl)-phenyl]-5-methyl-4-oxo-1H-quinoline-3-carboxamide] |
| 10 to 25 | + (<25%) | CCOc1cccc2c(=O)c(C(=O)Nc3cc(O)c(C(C)(C)C)cc3C(C)(C)C)c[nH]c12 [Compound 616, 8-ethoxy-N-(5-hydroxy-2,4-ditert-butyl-phenyl)-4-oxo-1H-quinoline-3-carboxamide] |
| < 10 | ++ (between 25% to 100%) | CC(C)(C)c1cc(C(C)(C)C)c(NC(=O)c2c[nH]c3cc(C#N)ccc3c2=O)cc1O [Compound 548, 7-cyano-N-(5-hydroxy-2,4-ditert-butyl-phenyl)-4-oxo-1H-quinoline-3-carboxamide] |
| < 10 | ++ (between 25% to 100%) | CC(C)(C)c1cc(F)c(NC(=O)c2c[nH]c3c(C#N)cccc3c2=O)cc1O [Compound 519, 8-cyano-N-(2-fluoro-5-hydroxy-4-tert-butyl-phenyl)-4-oxo-1H-quinoline-3-carboxamide] |
| 10 to 25 | ++ (between 25% to 100%) | COc1ccc(NC(=O)c2c[nH]c3ccccc3c2=O)cc1N [Compound 378, N-(3-amino-4-methoxy-phenyl)-4-oxo-1H-quinoline-3-carboxamide] |
| < 10 | ++ (between 25% to 100%) | O=C(Nc1ccc(N2CC[C@H](O)C2)cc1C(F)(F)F)c1c[nH]c2ccccc2c1=O [Compound 655, (S)-N-(4-(3-hydroxypyrrolidin-1-yl)-2-(trifluoromethyl)phenyl)-4-oxo-1,4-dihydroquinoline-3-carboxamide] |
| < 10 | +++ (>100%) | COc1cc2[nH]cc(C(=O)Nc3cc(O)c(C(C)(C)C)cc3C(C)(C)C)c(=O)c2cc1F [Compound 617, 6-fluoro-N-(5-hydroxy-2,4-ditert-butyl-phenyl)-7-methoxy-4-oxo-1H-quinoline-3-carboxamide] |
| 25 to 60 | + (<25%) | CCn1cc(C(=O)Nc2ccccc2)c(=O)c2cc(OC)ccc21 [Compound 480, 1-ethyl-6-methoxy-4-oxo-N-phenyl-1H-quinoline-3-carboxamide] |
| < 10 | ++ (between 25% to 100%) | CC(C)(C)c1cc(C(C)(C)C)c(NC(=O)c2c[nH]c3ccc(Cl)cc3c2=O)cc1O [Compound 623, 6-chloro-N-(5-hydroxy-2,4-ditert-butyl-phenyl)-4-oxo-1H-quinoline-3-carboxamide] |
| < 10 | ++ (between 25% to 100%) | O=C(Nc1cccc2ccccc12)c1c[nH]c2ccccc2c1=O [Compound 350, N-(1-naphthyl)-4-oxo-1H-quinoline-3-carboxamide] |
